Laboratory results reported in patent US20100029604A1, “ANTIBACTERIAL COMBINATION AND ITS USE” (priority 2007, published 2010).
Converted amounts (≈) assume the structure as drawn. Like-named read-outs stand apart in the source and are kept apart here.

What was measured:
[1] = system: E. cloacae AmpC; test: Synergy MIC, inhibitor at 4 μg/mL (Example 4); type: cell-based, Enterobacter Cloacae; conditions: class C, inhibitor constant 4 μg/mL
Description: (§1) The in vitro activities of the antibiotics were determined by the broth microdilution method and agar dilution technique as recommended by CLSI guidelines. The MIC experiments were performed in duplicate in 96-well microtiter plates using MHB. Serial twofold dilutions of each antibiotic either alone or in combination with a constant amount (4 μg/mL) of a β-lactamase inhibitor were prepared in MHBII broth. A sterile pipette tip was used to mix the contents of each well (one tip was used going from the low to the high concentration in the same column). The bacterial suspension with final inoculum 10^5 CFU/mL was transferred to the test medium containing the antibacterial substances by a multipoint inoculator (Dynatech, Chantilly, Va., USA). The plates were then incubated at 35° C. for 24 h.
(§2) Following procedures identical to those described in Example 3, representative compound of Formula (I) was tested for its ability to enhance antibiotic efficacy against Class C β-lactamase positive bacterial strains that are highly resistant to β-lactam antibiotics. Class C enzymes included AmpC β-lactamases of Enterobacter Cloacae and Citrobacter freundii.

[2] = system: K. pneumoniae SHV-18; test: Synergy MIC, inhibitor at 4 μg/mL (Example 4); type: cell-based; conditions: SHV-18, class A, inhibitor constant 4 μg/mL
[3] = system: E. coli TEM-1; type: cell-based; conditions: TEM-1, class A, inhibitor constant 4 μg/mL
[4] = system: C. freundii AmpC; test: Synergy MIC, inhibitor at 4 μg/mL (Example 4); type: cell-based, Citrobacter freundii; conditions: class C, inhibitor constant 4 μg/mL
Description: as §1, §2

[5] = system: E. coli SHV-3; test: Synergy MIC, inhibitor at 4 μg/mL (Example 4); type: cell-based; conditions: SHV-3, class A, inhibitor constant 4 μg/mL
[6] = system: E. coli SHV-5; test: Synergy MIC, inhibitor at 4 μg/mL (Example 4); type: cell-based; conditions: SHV-5, class A, inhibitor constant 4 μg/mL
[7] = system: E. coli TEM-2; type: cell-based; conditions: TEM-2, class A, inhibitor constant 4 μg/mL
[8] = system: S. aureus PC; test: Synergy MIC, inhibitor at 4 μg/mL (Example 3); type: cell-based, Staphylococcus aureus; conditions: penicillinases (PC-type) of S. aureus (MSSA)
Description: (§3) Stock solutions of the test compounds and control antibiotics were prepared in distilled water according to the NCCLS guidelines [Methods for dilution antimicrobial tests for bacteria that grow aerobically. NCCLS document M7-A5; 2000; vol. 19. National Committee for Clinical Laboratory Standards, Villanova, Pa.]. All drug weights were corrected for salt forms and refer to the pure drug substance.
(§4) All tested strains and Clinical isolates were either purchased from the American Type Culture Collection (ATCC), or from the in-house company culture collection.
(§5) Stock cultures were prepared from broth cultures grown at 35° C. for 18-22 h without agitation and subsequent addition of 5% DMSO (v/v, final concentration) as cryoprotectant and stored frozen in liquid nitrogen. Mueller-Hinton II broth (MHBII) (BBL Cockeysville, Md.) was used for the testing procedure.
as §1
(§6) Representative compound of Formula (I) was evaluated against the serine-based Class A β-lactamases including TEM-type, SHV-type extended spectrum β-lactamases (ESBL) and various non-ESBL enzymes of enterobacteriaceae as well as BRO-type enzymes of Moraxella catarrhalis and penicillinases of Staphylococcus aureus.

[9] = system: M. catarrhalis BRO-1; test: Synergy MIC, inhibitor at 4 μg/mL (Example 3); type: cell-based, Moraxella catarrhalis; conditions: BRO-1 β-lactamases of M. catarrhalis
Description: as §3, §4, §5, §1, §6

[10] = molecular target: AmpC (Enterobacter cloacae, UniProt P05364); type: biochemical, Enterobacter Cloaca; conditions: Class C β-lactamase; 10 min pre-incubation at 37° C., nitrocefin
AmpC, sequence (P05364 21-381): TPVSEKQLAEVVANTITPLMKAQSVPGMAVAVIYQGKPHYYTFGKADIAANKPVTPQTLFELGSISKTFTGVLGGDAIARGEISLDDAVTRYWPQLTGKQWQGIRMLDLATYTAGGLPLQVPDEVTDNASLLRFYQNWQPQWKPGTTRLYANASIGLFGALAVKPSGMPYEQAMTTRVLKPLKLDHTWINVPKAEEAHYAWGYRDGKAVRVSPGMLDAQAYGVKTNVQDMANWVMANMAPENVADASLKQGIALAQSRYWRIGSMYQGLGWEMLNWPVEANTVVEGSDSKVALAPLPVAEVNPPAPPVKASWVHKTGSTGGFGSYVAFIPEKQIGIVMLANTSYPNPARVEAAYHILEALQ
Description: (§7) A standard test for the production of βlactamase involves use of the chromogenic cephalosporin, nitrocefin.
(§8) Homogeneously purified Class A β-lactamases TEM-1 and SHV-1 from E. coli and Class C enzyme AmpC from Enterobacter Cloaca were employed in the assay.
(§9) Compounds were prepared as 50 mM stocks in DMSO and diluted with buffer P1 (50 mM phosphate, pH 7) to a final concentration of 10% DMSO. All further dilutions were done using P2 (P1 with 10% DMSO). Enzyme and compound dilutions were pre-incubated for 10 min at 37° C. and the reaction started with the addition of pre-warmed (37° C.) nitrocefin (reporter substrate) at a final concentration of […]. The change in absorption at 490 nm was followed at 37° C. for 10 min at 30 sec intervals in a SPECTRAMAX 384 PLUS microplate reader (Molecular Devices, Sunnyvale, Calif.) using 96-well plates. The initial rate was determined and IC50 values were calculated using non-linear regression and sigmoidal dose response analysis with the PRISM 4.0 software (Graphpad Software Inc., San Diego, Calif.). IC50 data is expressed as μM and was calculated from at least two independent experiments.

[11] = system: 55 laboratory strains producing characterized β-lactamases; test: MIC, whole panel of Example 5 (Tables 5-7); type: cell-based; conditions: LK-157 as single agent against the tested strains
Description: The MIC experiments were performed in duplicate in 96-well microtiter plates using CAMHB. Serial twofold dilutions of each antibiotic either alone or in combination with constant concentration ratio of a β-lactamase inhibitor (2:1) were prepared in CAMHB. The bacterial suspension with final inoculum 10^5 CFU/mL was transferred to the test medium containing the antibacterial substances. In each well of a 96-well microtiter plate was combined 50 μL of bacterial inoculum, 50 μL of antibiotic dilutions (or media for determination of the MIC of the antibiotic in the absence of test compound). Each plate included 4 wells with no bacterial inoculum (negative control) and 4 wells with no test compound and no antibiotic (positive control). The plates were incubated at 35° C. for 24 h. Purity check and colony counts on each inoculum suspension was performed to ensure that the final inoculum concentration routinely obtained closely approximates 5×10^5 CFU/mL. In addition the assay is routinely monitored by testing standard antibiotics and ensuring that MIC values are within the recommended ranges for the respective strains.
This test permits comparisons to be made between bacterial growth in the presence of antibiotic alone and bacterial growth in the presence of both an antibiotic and a novel (test) compound.

[12] = molecular target: SHV-1 (Escherichia coli, UniProt P0AD63); test: IC50 determination, nitrocefin hydrolysis; type: biochemical, E. coli; conditions: Class A β-lactamase, 10 min pre-incubation at 37° C.
SHV-1, sequence (P0AD63 22-286): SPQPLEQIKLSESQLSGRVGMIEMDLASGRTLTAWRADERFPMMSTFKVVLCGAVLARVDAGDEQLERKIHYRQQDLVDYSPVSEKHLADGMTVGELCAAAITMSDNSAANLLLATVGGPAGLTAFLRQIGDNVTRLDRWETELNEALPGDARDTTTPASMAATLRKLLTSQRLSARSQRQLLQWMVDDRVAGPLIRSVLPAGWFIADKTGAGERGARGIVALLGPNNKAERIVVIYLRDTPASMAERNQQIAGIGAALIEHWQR
Description: as §7, §8, §9

[13] = molecular target: TEM-1 (Escherichia coli, UniProt P62593); test: IC50 determination, nitrocefin hydrolysis; type: biochemical, E. coli; conditions: Class A β-lactamase, 10 min pre-incubation at 37° C.
TEM-1, sequence (P62593 24-286 limits assumed): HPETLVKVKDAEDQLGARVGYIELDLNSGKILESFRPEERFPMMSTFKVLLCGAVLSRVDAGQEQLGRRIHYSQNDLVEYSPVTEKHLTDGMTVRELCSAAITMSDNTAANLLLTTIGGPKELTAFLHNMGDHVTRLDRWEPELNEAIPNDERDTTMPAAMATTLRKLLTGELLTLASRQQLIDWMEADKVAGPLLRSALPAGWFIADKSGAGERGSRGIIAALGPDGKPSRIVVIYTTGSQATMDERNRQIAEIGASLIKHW
Description: as §7, §8, §9

[14] = system: Class C β-lactamase (AmpC) producing strains; test: Synergy MIC, Class C strains of Example 4; type: cell-based; conditions: all combinations used
Description: as §1, §2

[15] = system: E. coli ESBL; test: Synergy MIC, inhibitor at 4 μg/mL (Example 3); type: cell-based; conditions: first listed (Table 3 r21), inhibitor constant 4 μg/mL
Description: as §3, §4, §5, §1, §6

[16] = system: E. cloacae SHV-12; test: Synergy MIC, inhibitor at 4 μg/mL (Example 3); type: cell-based; conditions: β-lactamase SHV-12 (Table 3 r11), inhibitor constant 4 μg/mL
Description: as §3, §4, §5, §1, §6

[17] = system: K. oxytoca ESBL; test: Synergy MIC, inhibitor at 4 μg/mL (Example 3); type: cell-based; conditions: ESBL (Table 3 r26), inhibitor constant 4 μg/mL
Description: as §3, §4, §5, §1, §6

[18] = system: E. coli SHV-3; test: Synergy MIC, inhibitor at 4 μg/mL (Example 3); type: cell-based; conditions: β-lactamase SHV-3 (Table 3 r9), inhibitor constant 4 μg/mL
Description: as §3, §4, §5, §1, §6

[19] = system: C. freundii SHV-5; test: Synergy MIC, inhibitor at 4 μg/mL (Example 3); type: cell-based; conditions: β-lactamase SHV-5 (Table 3 r10), inhibitor constant 4 μg/mL
Description: as §3, §4, §5, §1, §6

[20] = system: M. catarrhalis BRO-2; test: Synergy MIC, inhibitor at 4 μg/mL (Example 3); type: cell-based, Moraxella catarrhalis; conditions: β-lactamase BRO-2 (Table 3 r18), inhibitor constant 4 μg/mL
Description: as §3, §4, §5, §1, §6

[21] = system: E. coli TEM-3; type: cell-based; conditions: β-lactamase TEM-3 (Table 3 r16), inhibitor constant 4 μg/mL
Description: as §3, §4, §5, §1, §6

[22] = system: E. coli TEM-1; type: cell-based; conditions: β-lactamase TEM-1, first listed (Table 3 r14), inhibitor constant 4 μg/mL
Description: as §3, §4, §5, §1, §6

[23] = system: Klebsiella oxytoca ATCC 51983; test: MIC broth microdilution (Example 2); conditions: ATCC51983
[24] = system: Klebsiella pneumoniae ATCC 700603; test: MIC broth microdilution (Example 2); conditions: Klebsiella pneumoniae ATCC 700603 producing SHV-18
[25] = system: C. freundii SHV-5; test: Synergy MIC, inhibitor at 4 μg/mL (Example 4); type: cell-based; conditions: SHV-5, class A, inhibitor constant 4 μg/mL

Question: Which results are given for `C[C@H]1[C@H](NC(=O)/C(=N\OC(C)(C)C(=O)O)c2csc(N)n2)C(=O)N1S(=O)(=O)O` [Aztreonam, aztreonam]?
Answer: MIC ([1]; first listed): 25.6 µg/mL; MIC ([1]; second listed): > 25.6 µg/mL; MIC ([1]; third listed): 12.8 µg/mL; MIC [2]: > 25.6 µg/mL; MIC [3]: 12.8 µg/mL (≈ 29.4 µM); MIC [4]: > 25.6 µg/mL; MIC [5]: 0.4 µg/mL; MIC [6]: > 25.6 µg/mL; MIC [7]: 0.1 µg/mL (≈ 0.23 µM)

Question: Which results are given for `CO/N=C(\C(=O)N[C@@H]1C(=O)N2C(C(=O)[O-])=C(C[n+]3cccc4c3CCC4)CS[C@H]12)c1csc(N)n1` [Cefpirome, cefpirome]?
Answer: MIC ([1]; first listed): 6.4 µg/mL; MIC ([1]; second listed): 3.2 µg/mL; MIC ([1]; third listed): 3.2 µg/mL; MIC [2]: 0.8 µg/mL; MIC [3]: 25.6 µg/mL (≈ 49.7 µM); MIC [4]: 1.6 µg/mL; MIC [5]: 0.8 µg/mL; MIC [6]: > 25.6 µg/mL; MIC [7]: ≦0.025

Question: `C/C=C1/C(=O)N2C(C(=O)O)=C3[C@@H](OC)CCC[C@@H]3[C@H]12` [Compound 1a, (4S,8S,9R)-4-methoxy-10-((E)-ethylidene)-11-oxo-1-azatricyclo[7.2.0.0^3,8]undec-2-ene-2-carboxylic acid] was tested. Which “activity compared with other β-lactamase inhibitors” value [8] did it give?
Answer: more active than the other tested β-lactamase inhibitors

Question: And the “activity compared with other β-lactamase inhibitors” value [9]?
Answer: more active than the other tested β-lactamase inhibitors

Question: What about the IC50 [10] of the same compound?
Answer: 62 nM

Question: What about the “antibiotic activity per se” value [11] of the same compound?
Answer: did not display antibiotic activity per se

Question: What about the IC50 [12] of the same compound?
Answer: 151 nM

Question: And the IC50 [13]?
Answer: 55 nM

Question: What about the “activity compared with tazobactam” value [14] of the same compound?
Answer: superior to tazobactam

Question: What does the source list for `CCN1CCN(C(=O)N[C@@H](C(=O)N[C@@H]2C(=O)N3[C@@H]2SC(C)(C)[C@@H]3C(=O)O)c2ccccc2)C(=O)C1=O` [PIP, piperacillin]?
Answer: MIC [15]: 0.8 µg/mL; MIC [16]: > 25.6 µg/mL; MIC [17]: 3.2 µg/mL; MIC [18]: > 25.6 µg/mL; MIC [19]: > 25.6 µg/mL; MIC [20]: 1.6 µg/mL; MIC [21]: > 25.6 µg/mL; MIC [22]: > 25.6 µg/mL

Question: How did the MIC ([1]; first listed) turn out when `CO/N=C(\C(=O)N[C@@H]1C(=O)N2C(C(=O)O)=C(CSc3nc(=O)c(=O)[nH]n3C)CS[C@H]12)c1csc(N)n1` [ceftriaxone] was run?
Answer: > 25.6 µg/mL

Question: What about the MIC ([1]; second listed) of the same compound?
Answer: > 25.6 µg/mL

Question: What about the MIC ([1]; third listed) of the same compound?
Answer: > 25.6 µg/mL

Question: What about the MIC [2] of the same compound?
Answer: 6.4 µg/mL

Question: What about the MIC [23] of the same compound?
Answer: 2 to 8 µg/mL (≈ 3.61 to 14.4 µM)

Question: And the MIC [3]?
Answer: > 25.6 µg/mL

Question: And the MIC [4]?
Answer: > 25.6 µg/mL

Question: What about the MIC [5] of the same compound?
Answer: 3.2 µg/mL

Question: And the “susceptibility of the strain to the antibiotic” value [24]?
Answer: susceptible

Question: And the MIC [6]?
Answer: > 25.6 µg/mL

Question: And the MIC [25]?
Answer: 25.6 µg/mL

Question: And the MIC [7]?
Answer: ≦0.025
